Results as given in patent US9629822B2, “Flavonoid based antiviral targets” (UNIVERSITY OF CENTRAL FLORIDA RESEARCH FOUNDATION, INC., priority 2012, dated 2017).
Read-outs that look alike come from different tables or passages of the source.

How the values were obtained:
[1] = TZMbI assay for cell safety (cell viability and growth, CytoTox Glo); conditions: human, TZMbI cells, read-out: % decrease in viability compared to 0.1% DMSO vehicle based on viable cell luminescence
Protocol: Assays were performed below in accordance with the procedures set forth in The Journal of Immunology, 2006, 176, pp. 6900-905; AIDS Research and Human Retroviruses, 2004, 20:11, pp. 1157-1665.^32,33 TZMbI assays for cell safety were performed to identify potential anti-viral compounds. TZMbI assays for cell safety were performed to identify potential anti-viral compounds per the methods.

[2] = target: T1, US28 receptor (Human cytomegalovirus, UniProt P69332); assay: PathDetect trans Elk1 luciferase reporter gene assay in US28-transfected 293T HEK cells; format: cell-based, Human Cytomegalovirus (HCMV); conditions: for EC50: 293T HEK cells transiently expressing US28, Elk1 reporter; for type of activity on the US28 receptor (agonist / inverse agonist / none), in words: Elk1 reporter, US28-transfected HEK cells
T1 construct: expressed in transfected cells; host or cells: HEK 293T cells, transiently transfected
T1 sequence (P69332 whole entry): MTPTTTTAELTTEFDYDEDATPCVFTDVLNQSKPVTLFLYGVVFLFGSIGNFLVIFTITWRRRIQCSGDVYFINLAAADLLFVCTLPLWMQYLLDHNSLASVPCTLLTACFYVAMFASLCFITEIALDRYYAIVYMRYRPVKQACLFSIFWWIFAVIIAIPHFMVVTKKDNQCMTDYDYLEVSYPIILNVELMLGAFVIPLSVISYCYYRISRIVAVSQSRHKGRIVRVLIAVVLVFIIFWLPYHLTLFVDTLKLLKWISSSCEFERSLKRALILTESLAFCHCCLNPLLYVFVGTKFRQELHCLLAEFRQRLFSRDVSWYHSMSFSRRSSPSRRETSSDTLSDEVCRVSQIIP
Text: Having generated a homologous series of chalcones and flavones, their ability to interact with the US28 receptor in human embryonic kidney (HEK) cells was investigated using an Elk-1 gene reporter assay (FIG. 2). HEK cells were transfected with either an empty vector (i.e., mock cells) or with a vector carrying US 28. These matched HEK cells provided a means to evaluate off-target effects as well as innate drug toxicity. As many of the flavonoid drugs were not water-soluble, all drug stock solutions were made in 100% dimethylsulfoxide (DMSO). The final DMSO concentration for each cell-based experiment, however, was 1% DMSO. To account for the presence of DMSO, 1% DMSO controls were run in parallel. […] values of the homologous series were also determined in Chinese hamster ovary (CHO) cells in order to assess the relative toxicities of each member of the series in a different cell line (see Table 1).
Interaction with the US28 receptor was measured by a decrease in luminescence using a firefly (Photinus pyralis) luciferase-based PathDetect Elk1 gene reporter assay (FIG. 2).^23,24 This assay assessed the modulation of US28-mediated activation of mitogen-activated protein kinase (MAPK) signaling pathways (results are shown in Table 1). […] Such compounds which reduce MAPK signaling will have direct utility in the treatment of proliferative disorders including but not limited cancer.
After transfection the US28 is expressed and activates MAPK. The MAPK phosphorylates the activator domain of the GAL4dbd/Elk1 fusion protein, and causes its dimerization. The dimer then binds to the GAL4 UAS region of the reporter gene and allows for luciferase transcription. The luciferase mRNA is then translated and the luciferase protein is detected via luminescence by the use of the Bright-Glo reagent.
(§1) The efficacy of each compound on the US28 receptor was investigated in luciferase based reporter gene assay PathDetect trans Elk1 (Agilent, Stratagene)^23 as described previously.^13 Briefly, the human embryonic kidney (HEK) 293T cells were transiently-transfected with 0.1 μg Elk1, 5 μg Luc, and 5 μg of US28 vector or empty pcDNA3 vector (mock cells). Five hours after transfection, the cells were washed with DMEM containing 1% FBS, harvested, seeded in a white half-area 96-well plate (20,000 cells/well) and incubated with the indicated concentrations of test compounds. The incubation buffer consisted of DMEM, 1% FBS, 2 mM L-glutamine, 1% penicillin-streptomycin and 1% DMSO. The cells were incubated at 37° C. in the humid atmosphere with 5% CO2 for an additional 20-24 hours. The luciferase substrate BrightGlo (Promega) was used according to the manufacturer's instruction. The luminescence intensity was acquired using microplate reader Victor3V (Perkin-Elmer). The basal luminescence of mock transfected cells was approximately 500 RLU and the basal luminescence of US28-transfected cells was 4-5-fold higher (2000-2500 RLU). As the inhibitors gave differential responses in terms of their ability to reduce US 28 mediated signaling, their relative EC50 values were determined by dosing the US-28 transfected HEK cells with increasing concentrations of each compound. In this case, the EC50 value is the concentration of the compound needed to provoke a response halfway between the compound's maximal response (change in luminescence) and the no-compound control in the same US-28 transfected cell line. A plot of relative luminescence versus log of the compound concentration provided a dose-response curve from which the % efficacy was derived via non-linear regression methods using the algorithms in PRISM 5.0 (GraphPad Software, San Diego, Calif.).

[3] = system: CHO cells; assay: CHO cell toxicity, MTS assay, 48 h; format: cell-based, Chinese hamster; conditions: Cricetulus griseus, CHO, 37° C., MTS reagent, read-out: CHO 48 h IC50 value
Protocol: In each case, the chalcone system 8 was more toxic than the corresponding ring-closed system, 9.
The CHO assay was conducted to assess the general toxicity of each flavonoid drug. Briefly, cell growth was assayed in sterile 96-well microtiter plates (Costar 3599, Corning, N.Y., USA) in the presence of each drug. Experiments were conducted in triplicate. CHO cells were plated at 10,000 cells/mL. Drug solutions were prepared in 100% DMSO and dosed so that the final DMSO concentration was <1%. For example, 1 μL of drug solution was added to the CHO cells plated in each well in 100 μL of media. Drug additions occurred after an initial overnight incubation of CHO cells in each well. After drug was added, the cells were incubated in 5% CO2 for 48 h at 37° C. The MTS reagent (Promega Cell Titer 96 Aqueous non-radioactive cell proliferation reagent) was added (20 μL) and the CHO cells were incubated for an additional 4h and then absorbance at 490 nm was measured on a BioTek Synergy MX plate reader. […] IC50 values were determined from the corresponding plot of relative absorbance at 490 nm vs drug concentration.

[4] = system: HIV-1 BaL; assay: Anti-HIV assay (luciferase, HIV-1 BaL infection); format: cell-based
Protocol: Assays were performed below in accordance with the procedures set forth in The Journal of Immunology, 2006, 176, pp. 6900-905; AIDS Research and Human Retroviruses, 2004, 20:11, pp. 1157-1665.^32,33 Cells were treated with 2 ng/mL p24 of HIV-1 BaL administered; MOI approx 0.02 (see refs 32, 33). Cells were treated with 2 ng/mL p24 of HIV-1 BaL administered; MOI approx 0.02 (see refs 32, 33).

[5] = system: mock transfected 293T HEK cells; assay: PathDetect Elk1 luminescence in mock transfected (empty pcDNA3 vector) 293T HEK cells, off-target effect; format: cell-based, human; conditions: 10 μM vs 1% DMSO control, Equation 1; for activation at 10 µM: Homo sapiens, read-out: Effect(%) on mock cells with each drug at 10 μM
Protocol: As a control, the empty pcDNA3 plasmid vector and the components of PathDetect system were also used for mock transfection of 293T HEK cells. Controls containing 1% DMSO were run in parallel. The relative luminescence results found with mock transfected 293T HEK cells treated with 10 μM drug and the untreated 1% DMSO control were compared via the following Equation 1. % Effect on mock cells=(100%×(mock cell luminescence/DMSO control luminescence))−100% Equation (1)
This equation was derived in order to assess the net effect each compound had on non-US28 containing HEK cells transfected via the same protocol. These control experiments were critical as they provided a method to address off target effects such as compound toxicity, which could give rise to false positives in the PathDetect assay.
Compounds, which had no off-target effects, gave nearly identical luminescence values in both the mock cells and the 1% DMSO control (i.e., a mock cell luminescence/DMSO control luminescence ratio of 1) and a net effect of 0% via Equation 1 (e.g., 9j: 0% in Table 1). In contrast, compounds that were stimulatory to the treated HEK cells gave higher mock cell luminescence than the DMSO control, a ratio >1, and a net positive value in Equation 1 for the % effect on mock cells (e.g., 8f: 290%). On the other hand, compounds that were intrinsically toxic gave lower luminescence in the treated mock cells than the DMSO control, a ratio below 1, and a net negative value for the % effect on mock cells (e.g., 8d: ˜42%).
as §1

[6] = EC50 (μM), NE = no effect when tested at 10 μM of compound
[7] = 10 μM, Experiment 1B, 2 ng/mL p24 HIV-1 BaL
[8] = Human immunodeficiency virus 1, BAL, 10 μM, Experiment 1B, 2 ng/mL p24 HIV-1 BaL
[9] = NE = no effect when tested at 10 μM of compound
[10] = Human immunodeficiency virus 1, BAL, 5 μM, Experiment 2B
[11] = Human immunodeficiency virus 1, BAL, 10 μM, Experiment 2B
[12] = Human immunodeficiency virus 1, BAL, 20 μM, Experiment 2B
[13] = Human immunodeficiency virus 1, BAL, 40 μM, Experiment 2B

| Compound | cytotoxicity at 10 μM ([1]; Experiment 1A) | EC50 [2, 6] | IC50 [3] | melting point | RLU (relative luciferase units) [4, 7] | inhibition at 10 µM [4, 8] | activation at 10 µM [5] | EC50 [2, 9] | type of activity on the US28 receptor (agonist / inverse agonist / none), in words [2] | cytotoxicity at 5 μM ([1]; Experiment 2A) | cytotoxicity at 10 μM ([1]; Experiment 2A) | cytotoxicity at 20 μM ([1]; Experiment 2A) | cytotoxicity at 40 μM ([1]; Experiment 2A) | RLU (relative luciferase units) ([4]; 5 μM, Experiment 2B) | RLU (relative luciferase units) ([4]; 10 μM, Experiment 2B) | RLU (relative luciferase units) ([4]; 20 μM, Experiment 2B) | RLU (relative luciferase units) ([4]; 40 μM, Experiment 2B) | inhibition at 5 µM [4, 10] | inhibition at 10 µM [4, 11] | inhibition at 20 µM [4, 12] | other results |
| --- | --- | --- | --- | --- | --- | --- | --- | --- | --- | --- | --- | --- | --- | --- | --- | --- | --- | --- | --- | --- | --- |
| CCOc1ccc(Cl)cc1/C=C/C(=O)c1ccccc1O [Compound 8i, (E)-3-(5-chloro-2-ethoxyphenyl)-1-(2-hydroxyphenyl)prop-2-en-1-one] | 87.1% | 6.4 µM | 6.8 ± 0.9 µM | 61 to 65 °C | 130.4 RLU | 86.2% | 33% | – | – | – | – | – | – | – | – | – | – | – | – | – | Efficacy(%) ([2]; maximum intrinsic activity from dose-response curve, negative = inverse agonism): ~76%; Emax ([2]; read-out: Efficacy(%), maximum intrinsic activity from dose-response curve, negative = inverse agonism): ~76%; Effect(%) on mock cells with each drug at 10 μM [5]: 33% |
| COc1ccc(I)cc1-c1oc2ccccc2c(=O)c1O [Compound 9g, 3-Hydroxy-2-(5-iodo-2-methoxyphenyl)-4H-chromen-4-one] | 15.3% | – | 17.9 ± 1.6 µM | 153 to 159 °C | 358.6 RLU | 61.7% | -23% | > 10 µM | – | – | – | – | – | – | – | – | – | – | – | – | – |
| COc1cc(OC)c(-c2oc3ccccc3c(=O)c2O)cc1Br [Compound 9e, 2-(5-Bromo-2,4-dimethoxyphenyl)-3-hydroxy-4H-chromen-4-one] | -11.9% | – | 18.3 ± 2.5 µM | 196 to 201 °C | 693.9 RLU | 25.9% | -17% | > 10 µM | – | – | – | – | – | – | – | – | – | – | – | – | – |
| COc1ccc(Cl)cc1C1CC(=O)c2ccccc2O1 (stereo not shown) [Compound 13h, 2-(5-Chloro-2-methoxyphenyl)chroman-4-one] | – | > 10 µM | – | 51 to 60 °C | – | – | -14% | > 10 µM | did not have any significant effect | – | – | – | – | – | – | – | – | – | – | – | – |
| CCOc1ccc(Br)cc1-c1oc2ccccc2c(=O)c1O [Compound 9c, 2-(5-Bromo-2-ethoxyphenyl)-3-hydroxy-4H-chromen-4-one] | -8.9% | 0.8 µM | 13.5 ± 1.3 µM | 149 to 155 °C | 727.6 RLU | 22.3% | – | – | inhibited US28 activity | -0.19% | 0.1% | 14.8% | 64.2% | 33.63 RLU | 49.29 RLU | 69.09 RLU | 88.45 RLU | -0.19% | 0.1% | 14.8% | cytotoxicity at 2.5 μM ([1]; 2.5 μM, Experiment 2A): -6.23%; EC50 ([2]; pEC50 ± SEM): 0.832 µM; RLU (relative luciferase units) ([4]; 2.5 μM, Experiment 2B): 30.81 RLU; inhibition at 2.5 µM ([4]; Human immunodeficiency virus 1, BAL, 2.5 μM, Experiment 2B): -6.23%; inhibition at 40 µM [4, 13]: 64.2% |
| COc1cc(Br)cc(-c2oc3ccccc3c(=O)c2O)c1OC [Compound 9d, 2-(5-Bromo-2,3-dimethoxyphenyl)-3-hydroxy-4H-chromen-4-one] | -7.3% | – | > 100 µM | 153 to 158 °C | 452.5 RLU | 51.7% | – | > 10 µM | – | -7.87% | -18.6% | -23.7% | -33.1% | 10.04 RLU | 25.14 RLU | 41.25 RLU | 68.82 RLU | -7.87% | -18.6% | -23.7% | cytotoxicity at 80 μM ([1]; 80 μM, Experiment 2A): -8.38%; RLU (relative luciferase units) ([4]; 80 μM, Experiment 2B): 59.85 RLU; inhibition at 40 µM [4, 13]: -33.1%; inhibition at 80 µM ([4]; Human immunodeficiency virus 1, BAL, 80 μM, Experiment 2B): -8.38% |
